Test results as given in ChEMBL document CHEMBL4385613, “Discovery of Conformational Control Inhibitors Switching off the Activated c-KIT and Targeting a Broad Range of Clinically Relevant c-KIT Mutants” (J Med Chem, 2019).
The source made the active and inactive calls. The calls are words filed in the database; no cut-off is given here.

Legend:
GIST430 [1] = experiment: Antitumor activity against human GIST430 cells harboring c-KIT exon 11 primary in-frame V560-L576 deletion mutant and exon 13 heterozygous secondary missense V654A mutant xenografted in NOD-SCID mouse assessed as tumor growth inhibition at 25 mg/kg, po administered for 2 weeks with 2 days rest after day 5 and measured thrice per week up to 21 days during compound dosing; format: functional, organism-based
[2] = target: Mast/stem cell growth factor receptor Kit (Homo sapiens, UniProt P10721, V654A); experiment: Inhibition of human c-KIT ATP binding domain exon 13 V654A single mutant using poly (Glu,Tyr) 4:1 as substrate in presence of 33P-gamma-ATP by hotspot kinase assay
[3] = test system: Mast/stem cell growth factor receptor Kit (Homo sapiens), P10721 [V560G]; experiment: Inhibition of human c-KIT JM domain exon 11 V560G single mutant at 100 nM using poly (Glu,Tyr) 4:1 as substrate in presence of 33P-gamma-ATP by hotspot kinase assay relative to control
[4] = test system: Mast/stem cell growth factor receptor Kit (Homo sapiens), P10721 [V560G]; experiment: Inhibition of human c-KIT JM domain exon 11 V560G single mutant at 10 nM using poly (Glu,Tyr) 4:1 as substrate in presence of 33P-gamma-ATP by hotspot kinase assay relative to control
[5] = test system: Mast/stem cell growth factor receptor Kit (Homo sapiens), P10721 [V654A]; experiment: Inhibition of human c-KIT ATP binding domain exon 13 V654A single mutant at 10 nM using poly (Glu,Tyr) 4:1 as substrate in presence of 33P-gamma-ATP by hotspot kinase assay relative to control
[6] = target: Mast/stem cell growth factor receptor Kit (Homo sapiens, UniProt P10721, K642E); experiment: Inhibition of human c-KIT ATP binding domain exon 13 K642E single mutant using poly (Glu,Tyr) 4:1 as substrate in presence of 33P-gamma-ATP by hotspot kinase assay
[7] = target: Mast/stem cell growth factor receptor Kit (Homo sapiens, UniProt P10721, T670I); experiment: Inhibition of human c-KIT ATP binding domain exon 14 T670I single mutant using poly (Glu,Tyr) 4:1 as substrate in presence of 33P-gamma-ATP by hotspot kinase assay
[8] = target: Mast/stem cell growth factor receptor Kit (Homo sapiens, UniProt P10721, D816V); experiment: Inhibition of human c-KIT A loop exon 17 D816V single mutant using poly (Glu,Tyr) 4:1 as substrate in presence of 33P-gamma-ATP by hotspot kinase assay
[9] = target: Mast/stem cell growth factor receptor Kit (Homo sapiens, UniProt P10721, D820E); experiment: Inhibition of human c-KIT A loop exon 17 D820E single mutant using poly (Glu,Tyr) 4:1 as substrate in presence of 33P-gamma-ATP by hotspot kinase assay
[10] = target: Mast/stem cell growth factor receptor Kit (Homo sapiens, UniProt P10721, D820Y); experiment: Inhibition of human c-KIT A loop exon 17 D820Y single mutant using poly (Glu,Tyr) 4:1 as substrate in presence of 33P-gamma-ATP by hotspot kinase assay
[11] = test system: Mast/stem cell growth factor receptor Kit (Homo sapiens), P10721 [A829P]; experiment: Inhibition of human c-KIT A loop exon 18 A829P single mutant at 10 nM using poly (Glu,Tyr) 4:1 as substrate in presence of 33P-gamma-ATP by hotspot kinase assay relative to control
[12] = test system: Mast/stem cell growth factor receptor Kit (Homo sapiens), P10721 [V559D,V654A]; experiment: Inhibition of human c-KIT […] V559D/V654A double mutant at 100 nM using poly (Glu,Tyr) 4:1 as substrate in presence of 33P-gamma-ATP by hotspot kinase assay relative to control
[13] = test system: Mast/stem cell growth factor receptor Kit (Homo sapiens), P10721 [V559D,V654A]; experiment: Inhibition of human c-KIT […] V559D/V654A double mutant at 10 nM using poly (Glu,Tyr) 4:1 as substrate in presence of 33P-gamma-ATP by hotspot kinase assay relative to control
[14] = test system: Mast/stem cell growth factor receptor Kit (Homo sapiens), P10721 [V560G,D816V]; experiment: Inhibition of human c-KIT A loop exon 11/17 V560G/D816V double mutant at 100 nM using poly (Glu,Tyr) 4:1 as substrate in presence of 33P-gamma-ATP by hotspot kinase assay relative to control
[15] = target: Mast/stem cell growth factor receptor Kit (Homo sapiens, UniProt P10721, N822K/V560G); experiment: Inhibition of human c-KIT A loop exon 11/17 V560G/N822K double mutant using poly (Glu,Tyr) 4:1 as substrate in presence of 33P-gamma-ATP by hotspot kinase assay
[16] = test system: Mast/stem cell growth factor receptor Kit (Homo sapiens), P10721 [V560G,N822K]; experiment: Inhibition of human c-KIT A loop exon 11/17 V560G/N822K double mutant at 100 nM using poly (Glu,Tyr) 4:1 as substrate in presence of 33P-gamma-ATP by hotspot kinase assay relative to control
GISTT1 = experiment: Antiproliferative activity against human GISTT1 cells harboring heterozygous V560-Y578 del mutation assessed as reduction in cell viability by methylene blue staining based assay; format: functional
GIST882 = experiment: Antiproliferative activity against human GIST882 cells harboring c-KIT exon 13 homozygous primary K642E mutant assessed as reduction in cell viability by methylene blue staining based assay; format: functional
GIST430 [17] = experiment: Antiproliferative activity against human GIST430 cells harboring c-KIT exon 11 primary in-frame V560-L576 deletion mutant and exon 13 heterozygous secondary missense V654A mutant assessed as reduction in cell viability by methylene blue staining based assay; format: functional
[18] = Antiproliferative activity against human GIST48B cells assessed as reduction in cell viability by methylene blue staining based assay; format: functional
[19] = Antiproliferative activity against human GIST62 cells assessed as reduction in cell viability by methylene blue staining based assay; format: functional
A549 = experiment: Antiproliferative activity against human A549 assessed as reduction in cell viability after 72 hrs by MTS assay; format: functional; settings: A549, 72 h
[20] = test system: Mast/stem cell growth factor receptor Kit (Homo sapiens), P10721 [UNDEFINED MUTATION]; experiment: Inhibition of c-KIT V560-L576 deletion/V654A double mutant phosphorylation in human GIST430 cells assessed as decrease in phosphorylation of MEK at 10 to 100 nM measured after 24 to 72 hrs by Western blot analysis; format: cell-based
[21] = AUC in ICR mouse at 10 mg/kg, po administered as single dose measured up to 24 hrs by LC-MS/MS analysis; format: ADME, organism-based; design: dose 10 mg/kg, time < 24 hr, route oral; settings: in vivo
[22] = Volume of distribution at steady state in ICR mouse at 2 mg/kg, iv administered as single dose measured up to 24 hrs by LC-MS/MS analysis; format: ADME, organism-based; settings: in vivo, read-out: Vdss
[23] = test system: Mast/stem cell growth factor receptor Kit (Homo sapiens), P10721 [D816V]; settings: at 10 nM
Description: Inhibition of human c-KIT A loop exon 17 D816V single mutant at 10 nM using poly (Glu,Tyr) 4:1 as substrate in presence of 33P-gamma-ATP by hotspot kinase assay relative to control

[24] = test system: Mast/stem cell growth factor receptor Kit (Homo sapiens), P10721 [D820E]; settings: at 10 nM
Description: Inhibition of human c-KIT A loop exon 17 D820E single mutant at 10 nM using poly (Glu,Tyr) 4:1 as substrate in presence of 33P-gamma-ATP by hotspot kinase assay relative to control

[25] = test system: Mast/stem cell growth factor receptor Kit (Homo sapiens), P10721 [Y823D]; settings: at 10 nM
Sequence of Mast/stem cell growth factor receptor Kit (Homo sapiens), P10721 [Y823D] (P10721 whole entry Y823D): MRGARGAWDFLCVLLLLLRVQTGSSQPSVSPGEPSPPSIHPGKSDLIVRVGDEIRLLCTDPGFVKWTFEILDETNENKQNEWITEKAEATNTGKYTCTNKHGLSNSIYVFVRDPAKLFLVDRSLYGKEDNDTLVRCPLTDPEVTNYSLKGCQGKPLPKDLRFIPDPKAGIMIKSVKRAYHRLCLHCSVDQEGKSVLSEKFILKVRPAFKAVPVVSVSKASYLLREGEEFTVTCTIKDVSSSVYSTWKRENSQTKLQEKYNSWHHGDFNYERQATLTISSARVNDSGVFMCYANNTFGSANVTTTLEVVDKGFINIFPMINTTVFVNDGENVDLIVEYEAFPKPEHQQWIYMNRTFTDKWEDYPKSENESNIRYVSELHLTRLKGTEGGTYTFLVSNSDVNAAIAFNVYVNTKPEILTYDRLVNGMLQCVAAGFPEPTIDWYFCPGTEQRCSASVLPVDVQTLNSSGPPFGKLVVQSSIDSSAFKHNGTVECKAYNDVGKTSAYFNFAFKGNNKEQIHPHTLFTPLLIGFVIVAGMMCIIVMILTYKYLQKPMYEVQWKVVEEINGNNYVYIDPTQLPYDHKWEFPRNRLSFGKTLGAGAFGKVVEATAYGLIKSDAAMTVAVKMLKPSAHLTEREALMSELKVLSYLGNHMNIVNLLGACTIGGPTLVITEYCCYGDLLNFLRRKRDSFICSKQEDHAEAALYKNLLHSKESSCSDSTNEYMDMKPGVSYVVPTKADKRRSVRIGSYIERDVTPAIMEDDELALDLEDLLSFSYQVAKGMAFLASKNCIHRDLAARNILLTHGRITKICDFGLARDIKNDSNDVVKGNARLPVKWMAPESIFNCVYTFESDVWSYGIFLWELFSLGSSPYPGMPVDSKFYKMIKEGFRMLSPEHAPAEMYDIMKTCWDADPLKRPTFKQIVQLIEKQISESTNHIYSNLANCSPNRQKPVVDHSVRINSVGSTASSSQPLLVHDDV
Description: Inhibition of human c-KIT A loop exon 17 Y823D single mutant at 10 nM using poly (Glu,Tyr) 4:1 as substrate in presence of 33P-gamma-ATP by hotspot kinase assay relative to control

Sequence of Mast/stem cell growth factor receptor Kit (Homo sapiens), P10721 [V559D,V654A] (P10721 whole entry V559D/V654A): as the sequence (P10721 whole entry Y823D) above, with V559D, V654A, D823Y counted along it
Sequence of Mast/stem cell growth factor receptor Kit (Homo sapiens), P10721 [V560G] (P10721 whole entry V560G, the tested form may be a part): as the sequence (P10721 whole entry Y823D) above, with V560G, D823Y counted along it
Sequence of Mast/stem cell growth factor receptor Kit (Homo sapiens, UniProt P10721, V654A) (P10721 26-976 V654A limits assumed): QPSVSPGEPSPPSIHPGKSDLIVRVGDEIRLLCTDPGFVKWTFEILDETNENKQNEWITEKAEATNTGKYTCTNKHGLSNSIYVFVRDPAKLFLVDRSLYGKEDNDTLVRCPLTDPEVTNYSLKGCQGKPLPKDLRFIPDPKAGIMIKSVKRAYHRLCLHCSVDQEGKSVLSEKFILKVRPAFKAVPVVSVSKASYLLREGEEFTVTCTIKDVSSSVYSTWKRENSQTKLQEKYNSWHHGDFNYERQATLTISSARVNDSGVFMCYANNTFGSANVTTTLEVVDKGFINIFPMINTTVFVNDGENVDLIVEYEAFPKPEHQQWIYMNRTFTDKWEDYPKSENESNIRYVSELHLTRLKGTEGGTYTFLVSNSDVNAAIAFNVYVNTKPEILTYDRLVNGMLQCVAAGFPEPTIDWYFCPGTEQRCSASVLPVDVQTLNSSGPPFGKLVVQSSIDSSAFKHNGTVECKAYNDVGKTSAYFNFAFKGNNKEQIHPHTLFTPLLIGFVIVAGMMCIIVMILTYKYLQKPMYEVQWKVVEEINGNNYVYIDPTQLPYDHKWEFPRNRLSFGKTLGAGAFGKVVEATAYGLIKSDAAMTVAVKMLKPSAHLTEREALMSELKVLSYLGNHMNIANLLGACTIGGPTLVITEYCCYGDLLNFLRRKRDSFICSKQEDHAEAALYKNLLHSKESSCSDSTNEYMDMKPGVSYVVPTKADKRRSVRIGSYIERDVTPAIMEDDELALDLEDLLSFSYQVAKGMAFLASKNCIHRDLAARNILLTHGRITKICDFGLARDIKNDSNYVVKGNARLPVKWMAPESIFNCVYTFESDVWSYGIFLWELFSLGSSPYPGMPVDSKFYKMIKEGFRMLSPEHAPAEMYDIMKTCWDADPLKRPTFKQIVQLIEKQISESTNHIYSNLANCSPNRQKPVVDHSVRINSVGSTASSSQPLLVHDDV
Sequence of Mast/stem cell growth factor receptor Kit (Homo sapiens), P10721 [V560G,N822K] (P10721 whole entry V560G/N822K): as the sequence (P10721 whole entry Y823D) above, with V560G, N822K, D823Y counted along it
Sequence of Mast/stem cell growth factor receptor Kit (Homo sapiens), P10721 [V560G,D816V] (P10721 whole entry V560G/D816V): as the sequence (P10721 whole entry Y823D) above, with V560G, D816V, D823Y counted along it
Sequence of Mast/stem cell growth factor receptor Kit (Homo sapiens), P10721 [A829P] (P10721 whole entry A829P): as the sequence (P10721 whole entry Y823D) above, with D823Y, A829P counted along it
Sequence of Mast/stem cell growth factor receptor Kit (Homo sapiens), P10721 [V654A] (P10721 whole entry V654A, the tested form may be a part): as the sequence (P10721 whole entry Y823D) above, with V654A, D823Y counted along it
Sequence of Mast/stem cell growth factor receptor Kit (Homo sapiens), P10721 [UNDEFINED MUTATION] (P10721 whole entry, looked up, stated change not applied): as the sequence (P10721 whole entry Y823D) above, with D823Y counted along it
Sequence of Mast/stem cell growth factor receptor Kit (Homo sapiens, UniProt P10721, D816V) (P10721 26-976 D816V limits assumed): as the sequence (P10721 26-976 V654A limits assumed) above, with A629V, D791V counted along it
Sequence of Mast/stem cell growth factor receptor Kit (Homo sapiens, UniProt P10721, T670I) (P10721 26-976 T670I limits assumed): as the sequence (P10721 26-976 V654A limits assumed) above, with A629V, T645I counted along it
Sequence of Mast/stem cell growth factor receptor Kit (Homo sapiens, UniProt P10721, K642E) (P10721 26-976 K642E limits assumed): as the sequence (P10721 26-976 V654A limits assumed) above, with K617E, A629V counted along it
Sequence of Mast/stem cell growth factor receptor Kit (Homo sapiens, UniProt P10721, D820Y) (P10721 26-976 D820Y limits assumed): as the sequence (P10721 26-976 V654A limits assumed) above, with A629V, D795Y counted along it
Sequence of Mast/stem cell growth factor receptor Kit (Homo sapiens), P10721 [D820E] (P10721 whole entry D820E): as the sequence (P10721 whole entry Y823D) above, with D820E, D823Y counted along it
Sequence of Mast/stem cell growth factor receptor Kit (Homo sapiens), P10721 [D816V] (P10721 whole entry D816V): as the sequence (P10721 whole entry Y823D) above, with D816V, D823Y counted along it
Sequence of Mast/stem cell growth factor receptor Kit (Homo sapiens, UniProt P10721, N822K/V560G) (P10721 26-976 V560G/N822K limits assumed): as the sequence (P10721 26-976 V654A limits assumed) above, with V535G, A629V, N797K counted along it
Sequence of Mast/stem cell growth factor receptor Kit (Homo sapiens, UniProt P10721, D820E) (P10721 26-976 D820E limits assumed): as the sequence (P10721 26-976 V654A limits assumed) above, with A629V, D795E counted along it

- IC50 [2]: 4.14 nM
- inhibition [3]: 99%
- inhibition [4]: 95%
- inhibition [5]: 43%
- IC50 [6]: 1.37 nM
- IC50 [7]: 1.66 nM
- IC50 [8]: 8.56 nM
- IC50 [9]: 0.81 nM
- IC50 [10]: 0.02 nM
- inhibition [11]: 90%
- inhibition [12]: 43%
- inhibition [13]: 10%
- inhibition [14]: 63%
- IC50 [15]: 0.18 nM
- inhibition [16]: 99%
- GI50 (A549): 14600 nM
- inhibition [20]: Active
- AUC at 24 h [21]: 2800 ng·h/mL
- Vd [22]: 7.1 L/kg
- inhibition [23]: 37%
- inhibition [24]: 83%
- inhibition [25]: 97%
SMILES: CCc1cc(NC(=O)Nc2ccc(-c3cnc(Nc4cc(N5CCN(CC)CC5)ncn4)s3)cc2)no1
- TGI (GIST430 [1]): Active
- GI50 (GISTT1): 2.2 nM
- GI50 (GIST882): 3 nM
- GI50 (GIST430 [17]): 1 nM
- GI50 [18]: > 100 nM
- GI50 [19]: > 100 nM
